Test systems include A498 renal; SNB-19 CNS; K-562 leukemia; MDA-MB-435; UO-31 renal; NCI/ADR-RES ovarian; MALME-3M melanoma; HCC-2998 colon; T-47D breast; NCI-H522 lung.
Common to all, as to test: growth of human tumour cells (NCI), 48 h

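Growth conditions: 96-well plates. Treatment: test compound, 48 hours, 5 concentrations. Analysis: linear interpolation between bracketing concentrations; unreached endpoints set to highest concentration. The concentration for 50% growth inhibition is given as GI50. At the TGI there is no net growth.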

Data on 15 compounds can be found in PubChem BioAssay (NCI).

On to `CCCCCCCC/C=C/CCCCCCCC1=NC(C)(C)CN1C(C)C`, for which the GI50 is 2.04 µM in the test on A498 renal; 2.17 µM with SNB-19 CNS; 1.11 µM in the test with K-562 leukemia; 1.6 µM in the test on MDA-MB-435; 1.43 µM with UO-31 renal; 1.54 µM in the test with NCI/ADR-RES ovarian. Moreover, the GI50 with MALME-3M melanoma was 1.63 µM; in the test with HCC-2998 colon it was 1.42 µM; in the test on T-47D breast it was 1.62 µM. Further, the TGI with A498 renal was 5.21 µM; with SNB-19 CNS, 7.49 µM; with K-562 leukemia, 2.39 µM; in the test on MDA-MB-435, 3.01 µM; in the test on UO-31 renal, 2.81 µM; with NCI/ADR-RES ovarian, 3.16 µM. The TGI with MALME-3M melanoma is 3.27 µM; in the test with HCC-2998 colon it was 2.72 µM; with T-47D breast it was 3.27 µM.
In the case of `Cc1cc(O)c(C(c2cccnc2)c2c(O)cc(C)[nH]c2=O)c(=O)[nH]1`, the TGI in the test on SNB-19 CNS, in the test on K-562 leukemia, in the test on MDA-MB-435, in the test with UO-31 renal, in the test on NCI/ADR-RES ovarian and with MALME-3M melanoma was over 100 µM in each case. Moreover, the TGI in the test with NCI-H522 lung and in the test on T-47D breast was over 100 µM in each case.
For `CN1CCC[C@@H]1CCO[C@](C)(c1ccccc1)c1ccc(Cl)cc1`, the GI50 was 10.7 µM in the test on A498 renal; 8.42 µM with SNB-19 CNS; 2.46 µM with MDA-MB-435; 2.83 µM in the test on UO-31 renal; 7.55 µM in the test with NCI/ADR-RES ovarian; 1.79 µM in the test with MALME-3M melanoma. Also, the GI50 in the test on NCI-H522 lung is 4.63 µM; in the test on HCC-2998 colon, 3.41 µM; in the test on T-47D breast, 3.29 µM. The TGI in the test on A498 renal was 23 µM; in the test on SNB-19 CNS it was 22.2 µM; in the test on MDA-MB-435, 8.19 µM; in the test with UO-31 renal, 16.3 µM; in the test on NCI/ADR-RES ovarian it was 21.7 µM; in the test with MALME-3M melanoma it was 4.85 µM. Besides, the TGI with NCI-H522 lung came to 17.1 µM; in the test on HCC-2998 colon it was 13.7 µM; with T-47D breast it was 16.4 µM.
As to `Nc1ncnc2c1nc(-c1ccccc1)n2C1OC(CO)C(O)C1O` (stereo not given), the TGI in the test on A498 renal, with SNB-19 CNS, in the test on K-562 leukemia, with MDA-MB-435, with UO-31 renal and in the test on NCI/ADR-RES ovarian was over 100 µM in each case. Besides, the TGI in the test on NCI-H522 lung, with HCC-2998 colon and in the test on T-47D breast was over 100 µM in each case.
As for `O=C(O)CC(Nc1ccccc1)C(=O)O` (stereo not given), the TGI with A498 renal, in the test on SNB-19 CNS, with K-562 leukemia, in the test on MDA-MB-435, with UO-31 renal and in the test on NCI/ADR-RES ovarian was over 100 µM each time. The TGI with MALME-3M melanoma, in the test on NCI-H522 lung and in the test on T-47D breast was over 100 µM each time.
Turning to `CCOC(=O)/C(=C/c1ccc([N+](=O)[O-])cc1)C(=O)c1ccccc1`, the GI50 with A498 renal was 2.33 µM; in the test with SNB-19 CNS, 2.4 µM; in the test with K-562 leukemia, 3.5 µM; in the test on MDA-MB-435 it was 2.23 µM; in the test on UO-31 renal, 1.66 µM; with NCI/ADR-RES ovarian, 3.43 µM. Moreover, the GI50 in the test with NCI-H522 lung is 1.7 µM; in the test with HCC-2998 colon, 1.87 µM; in the test on T-47D breast, 2.64 µM. Moreover, the TGI in the test on A498 renal is 5.37 µM; in the test on SNB-19 CNS, 5.81 µM; with K-562 leukemia it was 28.7 µM; in the test on MDA-MB-435, 5.37 µM; with UO-31 renal, 3.18 µM; in the test on NCI/ADR-RES ovarian it was 19.8 µM. The TGI in the test with NCI-H522 lung is 3.51 µM; in the test with HCC-2998 colon it was 3.43 µM; with T-47D breast it was 8.35 µM.
Regarding `C#CCN=C(N/N=C/c1ccc([N+](=O)[O-])o1)NS(=O)(=O)c1cc(C)c(Cl)cc1SCC(N)=O`, the GI50 is 17.1 µM with A498 renal; 50.6 µM in the test on SNB-19 CNS; 23.7 µM in the test with K-562 leukemia; over 100 µM in the test with MDA-MB-435; 17.6 µM in the test with UO-31 renal; 94.3 µM in the test on NCI/ADR-RES ovarian. Further, the GI50 with MALME-3M melanoma was 13.6 µM; in the test with NCI-H522 lung it was 10 µM; in the test with T-47D breast, 18.8 µM. Moreover, the TGI in the test with A498 renal is 32.7 µM; with SNB-19 CNS it was over 100 µM; in the test on K-562 leukemia, 52.5 µM; in the test on MDA-MB-435 it was over 100 µM; in the test with UO-31 renal it was 31.4 µM; with NCI/ADR-RES ovarian, over 100 µM. Further, the TGI was found to be 27.7 µM with MALME-3M melanoma, 23.3 µM with NCI-H522 lung and 34.9 µM in the test with T-47D breast.
Turning to `O=C(O)c1ccc2c(c1Nc1ccccc1)C(=O)c1ccccc1C2=O`, the GI50 was 49.3 µM in the test with SNB-19 CNS; 68.5 µM in the test on K-562 leukemia; 48.1 µM in the test with MDA-MB-435; 11.8 µM with UO-31 renal; 52.3 µM with NCI/ADR-RES ovarian; 54.6 µM in the test on MALME-3M melanoma. For the same compound, in the test with T-47D breast, the GI50 was 45.6 µM. Also, the TGI in the test on SNB-19 CNS, with K-562 leukemia, with MDA-MB-435, in the test with UO-31 renal, in the test with NCI/ADR-RES ovarian and in the test on MALME-3M melanoma was over 100 µM in each case. In the test on T-47D breast, this compound showed a TGI of over 100 µM.
As to `O=C1N=C(c2ccccc2)OC1C(=O)c1ccccc1` (stereo not given), the TGI with A498 renal, in the test with SNB-19 CNS, in the test on K-562 leukemia, in the test on MDA-MB-435, with UO-31 renal and in the test on NCI/ADR-RES ovarian was over 100 µM each time. For the same compound, the TGI with NCI-H522 lung, with HCC-2998 colon and in the test with T-47D breast was over 100 µM in each case.
`NC(CNO)C(=O)O` (stereo not given): the TGI in the test on A498 renal, in the test with SNB-19 CNS, with MDA-MB-435, with UO-31 renal, in the test on NCI/ADR-RES ovarian and in the test on MALME-3M melanoma was over 100 µM each time. Moreover, the TGI in the test with NCI-H522 lung and in the test on T-47D breast was over 100 µM throughout.
Consider `Clc1cc(Cl)c(Cl)c(-c2nc(-c3cccnc3)cs2)c1`, for which the GI50 in the test on A498 renal was 53.9 µM; in the test on SNB-19 CNS it was 66.2 µM; in the test with K-562 leukemia, over 100 µM; in the test with MDA-MB-435, 3.39 µM; in the test with UO-31 renal, 31 µM; with NCI/ADR-RES ovarian, 8.78 µM. Also, the GI50 was 18.8 µM in the test on MALME-3M melanoma, 9.22 µM in the test with NCI-H522 lung and 12.7 µM in the test with T-47D breast. Further, the TGI is over 100 µM in the test on A498 renal; over 100 µM with SNB-19 CNS; over 100 µM in the test on K-562 leukemia; 29.2 µM in the test on MDA-MB-435; over 100 µM in the test with UO-31 renal; over 100 µM with NCI/ADR-RES ovarian. Besides, the TGI with MALME-3M melanoma was determined as 51.4 µM; in the test on NCI-H522 lung it was 38.3 µM; in the test with T-47D breast, 65.4 µM.
Take `Cc1n[nH]c(=S)n1/N=C/c1ccc(F)c(Oc2ccccc2)c1`: the GI50 is 55.9 µM in the test with SNB-19 CNS; 54.5 µM in the test with K-562 leukemia; 28.6 µM in the test on MDA-MB-435; 50 µM with UO-31 renal; 33.2 µM with NCI/ADR-RES ovarian; 65.7 µM in the test with MALME-3M melanoma. Further, the GI50 with NCI-H522 lung is 48.2 µM; with HCC-2998 colon it was 69.5 µM; in the test with T-47D breast, over 100 µM. In addition, the TGI is over 100 µM with SNB-19 CNS; over 100 µM in the test on K-562 leukemia; 77.1 µM in the test on MDA-MB-435; over 100 µM in the test on UO-31 renal; over 100 µM in the test on NCI/ADR-RES ovarian; over 100 µM in the test with MALME-3M melanoma. Further, the TGI in the test on NCI-H522 lung, in the test with HCC-2998 colon and with T-47D breast was over 100 µM each time.
With `Cc1cc(C)c(O)c(Cc2cccc(Cc3cc(C)cc(C)c3O)c2O)c1`, the TGI in the test with A498 renal, in the test on SNB-19 CNS, in the test on K-562 leukemia, in the test with MDA-MB-435, in the test with UO-31 renal and in the test with NCI/ADR-RES ovarian was over 100 µM throughout. Further, the TGI in the test with MALME-3M melanoma, in the test on NCI-H522 lung and with T-47D breast was over 100 µM each time.
Regarding `COc1ccc(/C(C)=C(\c2ccc(Cl)cc2)c2ccc(OCCN3CCCC3)cc2)cc1F`, the GI50 was 3.87 µM with SNB-19 CNS; 0.944 µM in the test on K-562 leukemia; 1.48 µM in the test with MDA-MB-435; 2.95 µM in the test on UO-31 renal; 3.9 µM in the test on NCI/ADR-RES ovarian; 1.23 µM with MALME-3M melanoma. Also, the GI50 was 4.35 µM in the test with NCI-H522 lung, 3.44 µM with HCC-2998 colon and 3.3 µM in the test on T-47D breast. For the same compound, the TGI with SNB-19 CNS turned out to be 7.41 µM; with K-562 leukemia it was 4.54 µM; in the test with MDA-MB-435, 4.65 µM; in the test on UO-31 renal, 6.26 µM; in the test on NCI/ADR-RES ovarian, 7.8 µM; in the test on MALME-3M melanoma, 4.63 µM. The figures for the TGI in the test with NCI-H522 lung, with HCC-2998 colon and in the test with T-47D breast were 8.94 µM, 6.94 µM and 7.87 µM, respectively.
As to `S=c1nc2[nH]ncc2c(N/N=C/c2ccccc2)[nH]1`, the GI50 was 15.3 µM in the test on A498 renal; over 100 µM with SNB-19 CNS; over 100 µM in the test on K-562 leukemia; over 100 µM in the test on MDA-MB-435; over 100 µM with UO-31 renal; over 100 µM with NCI/ADR-RES ovarian. Moreover, the GI50 in the test with MALME-3M melanoma, in the test on NCI-H522 lung and in the test on HCC-2998 colon was over 100 µM each time. The TGI with A498 renal was 73.4 µM; in the test with SNB-19 CNS it was over 100 µM; in the test on K-562 leukemia, over 100 µM; in the test on MDA-MB-435, over 100 µM; in the test on UO-31 renal it was over 100 µM; in the test on NCI/ADR-RES ovarian it was over 100 µM. The TGI in the test with MALME-3M melanoma, in the test on NCI-H522 lung and in the test on HCC-2998 colon was over 100 µM each time.
